Test results: BindingDB's records for doi:10.7270/Q2H70D5W (University of Pittsburgh, 2007)

Molecular target: Gag-Pol polyprotein (Human immunodeficiency virus type 1 group M subtype B (isolate HXB2), UniProt P04585)
Assay: concentration-response of HIV-1 RNase H blockers – biochemical, probe assessment, dose response (AID 652)
Conditions: pH 8; 23 °C

Compound `C=CCOC(=O)C1=C(C)N=C(SCC(=O)Nc2ccc(C)c(Cl)c2)C(C#N)C1c1ccco1` (stereo unspecified) [prop-2-enyl 6-[2-(3-chloro-4-methylanilino)-2-oxoethyl]sulfanyl-5-cyano-4-(furan-2-yl)-2-methyl-1,4-dihydropyridine-3-carboxylate] has an IC50 of 4.25 µM.
